The text below walks through data of PMC5623949, “Exploiting the 2-Amino-1,3,4-thiadiazole Scaffold To Inhibit Trypanosoma brucei Pteridine Reductase in Support of Early-Stage Drug Discovery” (ACS Omega, 2017).

Structures are written as SMILES.

In general, IC50 refers to the point on the concentration scale where inhibition reaches its midpoint.

One data set deals with 786-O. Nature of the data set: cells. Further details: mitochondrial toxicity in 786-O renal carcinoma cells. The conditions noted are these: Homo sapiens, 786-0; read-out: mitochondrial toxicity [IC50 uM].
Data set [1] has as its system THP-1-derived macrophages. Nature of the data set: Cytotoxicity against THP-1 macrophages (MTT). It counts as cell-based, human. The conditions noted are these: 100 μM. The method, then: The effect of compounds 3k, 4h, 4m, and 4o on THP-1-derived macrophages was assessed by the colorimetric MTT assay [3-(4,5-dimethylthiazol-2-yl)-2,5-diphenyl tetrazolium bromide]. Briefly, 1 × 10^6 THP-1 cells were differentiated into macrophages by addition of 20 ng/mL of phorbol-myristate 13-acetate (PMA, Sigma-Aldrich) for 18 h, followed by replacement with a fresh medium and further incubation for 24 h. The cells were incubated with compounds ranging from 100 to 3 μM after dilution in the RPMI complete medium containing a maximum amount of 1% DMSO. After incubation for 72 h at 37 °C and 5% CO2, the medium was removed and 0.5 mg/mL MTT solution was added. The plates were incubated for 4 additional hours to allow viable cells to convert MTT into a purple formazan product. Solubilization of formazan crystals was achieved by addition of 2-propanol, and absorbance was read at 570 nm using a Synergy 2 multi-mode reader (BioTek).

On to `Nc1nnc(NCc2ccc(-c3ccccc3)cc2)s1` [4m], for which the IC50 in the data set with 786-O is > 100 µM. Also, in data set [1], the “toxicity in THP-1 cells alone vs combination with equimolar MTX” value is on record as “no increase in toxicity”. On to `Nc1nnc(NCCc2cccs2)s1` [4o, N2G(2G(thiophenG2Gyl)ethyl)G1,3,4GthiadiazoleG2,5Gdiamine], for which the IC50 in the data set with 786-O amounted to 17.8 µM.
